# According to US4431634A, “Prenatal iron supplements” (American Cyanamid Company, priority 1981, dated 1984):
# Like-named read-outs stand apart in the source and are kept apart here.
# How the values were obtained:
# [1] = Iron absorption in healthy menstruating female volunteers (serum iron after oral ingestion, randomized crossover; Studies I-IV); details: 3 hours after oral ingestion; for effect of co-administered mineral salt on iron absorption: Study II, co-administered with ferrous fumarate
# Protocol: (§1) The absorption of iron was established by collection of venous blood samples collected by hypodermic syringe and clotted at room temperature for one hour in silicone coated glass tubes. The tubes were centrifuged at 4,000 g for 30 minutes at 4° C. to isolate the serum which is removed and stored at -20° C. The serum samples were assayed for serum iron via spectrophotometry using ferrozine reagent.
# (§2) The tests were conducted in healthy menstruating female volunteers 21 to 45 years of age having normal hemoglobin and hematocrit valves. The subjects fasted overnight. Fifteen to 24 subjects were used in each study. Each study was conducted as a randomized crossover trial with the composition being administered at 8 a.m. at 3 to 4 day intervals. Blood was first taken in the fasting state. Then the preparation was administered using 50 ml of deionized water and the subjects remained fasting until the final blood sample was obtained. Serum iron levels were assayed in duplicate on a blind basis.
# (§3) All valves were corrected using this valve for diurnal variation. Values for iron absorption were calculated from the increases in serum iron concentration measured 2 to 6 hours after iron ingestion.
# (§4) In each case, the quantities of mineral stated are on the basis of the elemental metal as opposed to the weight of the entire salt.
# (§5) This study involved 15 female subjects of child bearing age.
# (§6) Again, 15 females of child bearing age were studied using ferrous fumarate alone and in combinations of calcium sulfate (CS), calcium carbonate (CC) and magnesium oxide (MX). The study involved 15 females of child bearing age with data obtained three hours after oral ingestion.
# (§7) The data were obtained 3 hours after oral ingestion.
# [2] = human, in vivo
# Protocol: as §1, §2, §3, §4, §5, §6, §7
smiles,measurement,setting,value
"O=S(=O)([O-])[O-].[Ca+2] [Plaster of paris, calcium sulfate]",effect of co-administered mineral salt on iron absorption,[1],does not seem to be inhibitory
O=C(O)O [calcium carbonate],effect of co-administered mineral salt on iron absorption,[1],additive inhibitory effects on iron absorption
same,effect of mineral component on bioavailability of the iron supplement,"[1]; Study III, mineral components of the formulations",depressant effects
[O]=[Mg] [magnesium oxide],effect of co-administered mineral salt on iron absorption,[2]; po,additive inhibitory effects on iron absorption
same,effect of mineral component on bioavailability of the iron supplement,[2]; po,depressant effects
"O=C([O-])/C=C/C(=O)[O-].[Fe+2] [Ferrous fumarate, ferrous fumarate, reference compound]","Calculated mean values for iron absorption, Average",[2],8.1 mg
